Laboratory results published in the NIST ThermoML archive (doi:10.1016/j.tca.2018.11.020).
Numbers after ± are expanded uncertainties.

Assays:
[1] = Adiabatic calorimetry
[2] = Molar enthalpy of transition or fusion; settings: Crystal; Adiabatic calorimetry
[3] = molar heat capacity at constant pressure; settings: 101.33 kPa, Vacuum adiabatic calorimetry

CC(C)O [propan-2-ol]
[1]
Settings | Glass transition temperature [°C] | Triple point temperature [K]
Crystal | – | 184.7 ± 0.4
Glass | -156.0 ± 0.4 | –

Settings | Molar enthalpy of transition or fusion [kcal/mol]
[2] | 1.27 ± 0.0239

[3]
Settings | molar heat capacity at constant pressure [J/K/mol]
85 K, Glass | 51.12 ± 0.91
90 K, Glass | 53.51 ± 0.92
95 K, Glass | 56.01 ± 0.92
100 K, Crystal | 54.18 ± 0.92
100 K, Glass | 58.63 ± 0.92
105 K, Crystal | 56.19 ± 0.92
105 K, Glass | 61.36 ± 0.92
110 K, Crystal | 58.21 ± 0.92
110 K, Glass | 64.24 ± 0.92
115 K, Crystal | 60.23 ± 0.92
120 K, Crystal | 62.27 ± 0.92
120 K, Metastable liquid | 103.93 ± 0.93
125 K, Crystal | 64.31 ± 0.92
125 K, Metastable liquid | 103.76 ± 0.93
130 K, Crystal | 66.36 ± 0.92
130 K, Metastable liquid | 103.51 ± 0.93
135 K, Crystal | 68.41 ± 0.92
135 K, Metastable liquid | 103.26 ± 0.93
140 K, Crystal | 70.47 ± 0.92
145 K, Crystal | 72.55 ± 0.92
150 K, Crystal | 74.62 ± 0.92
155 K, Crystal | 76.7 ± 0.92
160 K, Crystal | 78.79 ± 0.93
165 K, Crystal | 80.88 ± 0.93
